The subject of one assay is allodynia model in rats. To be noted: treatment of 50 µmol/kg, Neuroreport, Vol. 9, pp.367-372 (1998); cited from earlier work.
Assay [1] has as its system Bennett hyperalgesia model in rats. The assay can be described thus: Hyperalgesia to thermostimulus in Bennett model in rats (plantar test), intrathecal injection. In kind it is in vivo, Sprague-Dawley rats. From the text: Seven weeks old male Sprague-Dawley rats were used. According to the method of Yaksh et al. (J.Physiol. Behav. Vol.17, pp.1031-1036, 1976), the rat was mounted on the brain stereotaxis apparatus under sodium pentobarbital anesthesia and a polyethylene tube filled with saline was threaded about 3cm into intraspinal side through the cisternal incision.
A day after implantation, rats had no hindlimb paralysis were restrained in a prostrate position after induction of anesthetization with pentobarbital sodium. According to the method of Bennett and Xie et al. (Pain, Vol.33, pp.87-107, 1988), an incision of 2cm was cut along the skin of the femoral region of the right hindlimb, and the exposed sciatic nerve was constricted with 2 pieces of gut suture at 2 distal sites, and the incision was closed with a piece of silk suture. The left hindlimb was similarly operated on without performing any constriction of the sciatic nerve (sham-operated hindlimb).
Six days after the operation, the response latency to nociceptive thermostimulus was determined with the plantar test device, and rats with hyperalgesia were selected for the drug evaluation study on next day. […] By using a digital timer installed in the plantar testing device, the interval (response latency) from initiation of illumination to the time required for the animal to lift the hindlimb in an attempt to escape was measured. […]

The next assay has as its system formalin model in rats. The assay can be described thus: Formalin test in rats, intrathecal injection. Format: in vivo, Sprague-Dawley rats. As to conditions: for number of flinch: both doses, 2 or 20µg/10µl/rat intrathecally 10min prior to formalin, compared to vehicle treated group. On the procedure:
Eight weeks old male Sprague-Dawley rats were used. According to the method of Yaksh et al., the rat was mounted on the brain stereotaxis apparatus under sodium pentobarbital anesthesia and a polyethylene tube filled with saline was threaded approximately 3cm into intraspinal side through the cisternal incision.
A day after implantation, the rat had no hindlimb paralysis was administered 50µl of 5% formalin subcutaneously and was placed in the observational plastic cage immediately. Formalin injection time was regarded as 0min and for 1min every 5min until 60min, number of leg-up response (flinch) was counted. The compound of formula (IA-1) ((+)-trans-3-imino-5-methyl-7-chloro-2-azabicyclo[4.1.0]heptane Monohydrochloride) of the present invention was dissolved in saline, subsequently the dose of 2 or 20µg/10µl/rat was administered intrathecally via polyethylene tube 10min prior to the formalin injection.

Structures can show the parent of a compound that is named as a salt.

`COC(=O)[C@@H](N)CCCNC(=N)N[N+](=O)[O-]` [L-NAME]: in the assay on allodynia model in rats, the “effect on allodynia model” value was “showed effect”.

Turning to `C[C@H]1CC(=N)N[C@@H]2[C@H](Cl)[C@@H]21` [IA-1, (+)-trans-3-imino-5-methyl-7-chloro-2-azabicyclo[4.1.0]heptane Monohydrochloride], in assay [1] (0.2, 2 or 20µg/10µl/rat intrathecally 20min prior to plantar test, compared to vehicle treated rats), the “hyperalgesia to nociceptive thermostimulus” value is given as “improved”. The analgetic effects entry in assay [1] (Bennett model in rats, summary statement) was “showed analgetic effects”; with formalin model in rats (formalin test in rats, summary statement), “showed analgetic effects”. The number of flinch entry with formalin model in rats (first phase (0-10min after formalin injection)) and with formalin model in rats (second phase (10-60min after formalin injection)) was “decreased” each time.

The record behind these values is patent EP1199078A1, “ANALGESICS” (ONO PHARMACEUTICAL CO., LTD., priority 1999, dated 2000).
